pIC50: −log10 of the molar value. Where a name gives a salt, the structure may show the parent alone.

In the assay the target is AKT1 (Homo sapiens (Human), UniProt P31749). Kind of assay: Inactive Akt Alpha Screen Assay. Conditions: non *labeled: Akt Alpha Screen assay; read-out: AKT1 biochemical assay, IC50. In a few lines: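 AKT1 activated in situ by PDK1, MAPKAPK2, lipid vesicles and ATP, then phosphorylating biotinylated crosstide for 30 min at room temperature. Stopped with 10 mM EDTA; phosphopeptide detected by AlphaScreen using phospho-AKT substrate antibody (1:350), Protein A acceptor and streptavidin donor beads, 90 min dark, ex 640/em 570 nm.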
AKT1, sequence (P31749 whole entry): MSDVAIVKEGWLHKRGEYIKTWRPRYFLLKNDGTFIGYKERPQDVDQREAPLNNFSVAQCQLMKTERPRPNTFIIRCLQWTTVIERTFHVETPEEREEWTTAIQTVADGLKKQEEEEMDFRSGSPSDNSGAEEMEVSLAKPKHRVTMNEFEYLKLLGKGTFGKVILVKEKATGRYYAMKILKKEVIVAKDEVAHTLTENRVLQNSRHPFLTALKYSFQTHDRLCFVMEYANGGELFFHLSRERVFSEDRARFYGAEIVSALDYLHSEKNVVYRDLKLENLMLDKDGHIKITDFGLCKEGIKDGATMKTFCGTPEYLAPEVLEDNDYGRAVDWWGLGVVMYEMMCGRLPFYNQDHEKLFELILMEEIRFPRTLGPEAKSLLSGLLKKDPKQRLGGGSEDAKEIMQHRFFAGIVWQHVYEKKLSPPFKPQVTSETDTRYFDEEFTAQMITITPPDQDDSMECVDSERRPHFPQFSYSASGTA
Usually pIC50 stands for the IC50 on a negative log10 scale, so that one unit is a factor of ten. As to `O=C(Nc1ccc(-c2nnc3n2-c2cccnc2Nc2ccccc2-3)cc1)c1ccc2ccccc2c1` [Example 28, N-(4-(9H-benzo[f]pyrido[2,3-b][1,2,4]triazolo[4,3-d][1,4]diazepin-3-yl)phenyl)-2-naphthamide], the pIC50 is 6.17.

`c1ccc2c(c1)Nc1ncccc1-n1c(-c3ccc(C4CCCN4)cc3)nnc1-2` (centres unmarked) [Example 196, 3-(4-(pyrrolidin-2-yl)phenyl)-9H-benzo[f]pyrido[2,3-b][1,2,4]triazolo[4,3-d][1,4]diazepine]: the pIC50 was 5.96. As for `CCC(=O)Nc1ccc(-c2nnc3n2-c2cccnc2Nc2ccccc2-3)cc1` [Example 39, N-(4-(9H-benzo[f]pyrido[2,3-b][1,2,4]triazolo[4,3-d][1,4]diazepin-3-yl)phenyl)propionamide], the figure is 5.74; as for `CC(C)(N)c1ccc(-c2nnc3n2-c2cccnc2Nc2ccccc2-3)cc1` [Example 192, 2-(4-(9H-benzo[f]pyrido[2,3-b][1,2,4]triazolo[4,3-d][1,4]diazepin-3-yl)phenyl)propan-2-amine], 6.47; as for `O=C(c1ccccc1F)N1CCN(Cc2ccc(-c3nnc4n3-c3cccnc3Nc3ccccc3-4)cc2)CC1` [Example 141, (4-(4-(9H-benzo[f]pyrido[2,3-b][1,2,4]triazolo[4,3-d][1,4]diazepin-3-yl)benzyl)piperazin-1-yl)(2-fluorophenyl)methanone], 6.35. Turning to `COc1ccc(NC(=O)NC2CCN(Cc3ccc(-c4nnc5n4-c4cccnc4Nc4ccccc4-5)cc3)CC2)c(C)c1` [Example 184, 1-(1-(4-(9H-benzo[f]pyrido[2,3-b][1,2,4]triazolo[4,3-d][1,4]diazepin-3-yl)benzyl)piperidin-4-yl)-3-(4-methoxy-2-methylphenyl)urea], the pIC50 was 6.08. Turning to `Fc1ccccc1N1CCN(Cc2ccc(-c3nnc4n3-c3cccnc3Nc3ccccc3-4)cc2)CC1` [Example 67, 3-(4-((4-(2-fluorophenyl)piperazin-1-yl)methyl)phenyl)-9H-benzo[f]pyrido[2,3-b][1,2,4]triazolo[4,3-d][1,4]diazepine], the pIC50 is 5.55. As for `COCC(=O)Nc1ccc(-c2nnc3n2-c2cccnc2Nc2ccccc2-3)cc1` [Example 53, N-(4-(9H-benzo[f]pyrido[2,3-b][1,2,4]triazolo[4,3-d][1,4]diazepin-3-yl)phenyl)-2-methoxyacetamide], the pIC50 was 5.82.

Take `O=C(NCCc1ccc(-c2nnc3n2-c2cccnc2Nc2ccccc2-3)cc1)c1ccccc1` [Example 111, N-(4-(9H-benzo[f]pyrido[2,3-b][1,2,4]triazolo[4,3-d][1,4]diazepin-3-yl)phenethyl)benzamide]: the pIC50 is 6.20. As for `Cc1ccc(-c2nnc3n2-c2cccnc2Nc2ccccc2-3)cc1` [Example 6, hydrochloride], the figure is 4.89; as for `c1c[nH]c(-c2nnc3n2-c2cccnc2Nc2ccccc2-3)c1` [Example 4, 3-(1H-pyrrol-2-yl)-9H-benzo[f]pyrido[2,3-b][1,2,4]triazolo[4,3-d][1,4]diazepine], 5.10; as for `Cc1cc(COCc2ccc(-c3nnc4n3-c3cccnc3Nc3ccccc3-4)cc2)no1` [Example 185, 3-(((4-(9H-benzo[f]pyrido[2,3-b][1,2,4]triazolo[4,3-d][1,4]diazepin-3-yl)benzyl)oxy)methyl)-5-methylisoxazole], 5.68.

Consider `Cn1ccc(S(=O)(=O)NC2(c3ccc(-c4nnc5n4-c4cccnc4Nc4ccccc4-5)cc3)CCC2)n1` [Example 205, N-(1-(4-(9H-benzo[f]pyrido[2,3-b][1,2,4]triazolo[4,3-d][1,4]diazepin-3-yl)phenyl)cyclobutyl)-1-methyl-1H-pyrazole-3-sulfonamide], for which the pIC50 is 6.19. For `O=C(NC1(c2ccc(-c3nnc4n3-c3ccc(Cl)nc3Nc3ccccc3-4)cc2)CCC1)C(F)(F)F` [Example 226, N-(1-(4-(7-chloro-9H-benzo[f]pyrido[2,3-b][1,2,4]triazolo[4,3-d][1,4]diazepin-3-yl)phenyl)cyclobutyl)-2,2,2-trifluoroacetamide], the pIC50 was 5.03. As for `O=C(Nc1ccc(-c2nnc3n2-c2cccnc2Nc2ccccc2-3)cc1)c1ccncc1` [Example 58, N-(4-(9H-benzo[f]pyrido[2,3-b][1,2,4]triazolo[4,3-d][1,4]diazepin-3-yl)phenyl)isonicotinamide], the figure is 6.46; as for `COC(=O)c1sccc1S(=O)(=O)NC1CCN(Cc2ccc(-c3nnc4n3-c3cccnc3Nc3ccccc3-4)cc2)CC1` [Example 145, methyl 3-(N-(1-(4-(9H-benzo[f]pyrido[2,3-b][1,2,4]triazolo[4,3-d][1,4]diazepin-3-yl)benzyl)piperidin-4-yl)sulfamoyl)thiophene-2-carboxylate], 6.10. On to `O=C(NCCc1ccc(Cl)cc1)NC1CCN(Cc2ccc(-c3nnc4n3-c3cccnc3Nc3ccccc3-4)cc2)CC1` [Example 180, 1-(1-(4-(9H-benzo[f]pyrido[2,3-b][1,2,4]triazolo[4,3-d][1,4]diazepin-3-yl)benzyl)piperidin-4-yl)-3-(4-chlorophenethyl)urea], for which the pIC50 is 6.03.

For `OCC1CCN(Cc2ccc(-c3nnc4n3-c3cccnc3Nc3ccccc3-4)cc2)CC1` [Example 76, (1-(4-(9H-benzo[f]pyrido[2,3-b][1,2,4]triazolo[4,3-d][1,4]diazepin-3-yl)benzyl)piperidin-4-yl)methanol], the pIC50 is 5.08. As to `O=C(NCc1ccc(-c2nnc3n2-c2cccnc2Nc2ccccc2-3)cc1)c1ccccc1` [Example 99, N-(4-(9H-benzo[f]pyrido[2,3-b][1,2,4]triazolo[4,3-d][1,4]diazepin-3-yl)benzyl)benzamide], the pIC50 is 6.70. For the molecule `Cc1cccc(S(=O)(=O)NC2(c3ccc(-c4nnc5n4-c4cccnc4Nc4ccccc4-5)cc3)CCC2)c1` [Example 199, N-(1-(4-(9H-benzo[f]pyrido[2,3-b][1,2,4]triazolo[4,3-d][1,4]diazepin-3-yl)phenyl)cyclobutyl)-3-methylbenzenesulfonamide], the pIC50 was 6.34.

For the molecule `Nc1cc(-c2nnc3n2-c2cccnc2Nc2ccccc2-3)ccn1` [Example 3, 4-(9H-benzo[f]pyrido[2,3-b][1,2,4]triazolo[4,3-d][1,4]diazepin-3-yl)pyridin-2-amine], the negative-log IC50 (pIC50) is 4.89.

For the molecule `Cc1nc(C)c(S(=O)(=O)NC2CCN(Cc3ccc(-c4nnc5n4-c4cccnc4Nc4ccccc4-5)cc3)CC2)s1` [Example 153, N-(1-(4-(9H-benzo[f]pyrido[2,3-b][1,2,4]triazolo[4,3-d][1,4]diazepin-3-yl)benzyl)piperidin-4-yl)-2,4-dimethylthiazole-5-sulfonamide], the negative-log IC50 (pIC50) was 5.28. As for `O=C(C1CCCC1)N1CCN(Cc2ccc(-c3nnc4n3-c3cccnc3Nc3ccccc3-4)cc2)CC1` [Example 133, (4-(4-(9H-benzo[f]pyrido[2,3-b][1,2,4]triazolo[4,3-d][1,4]diazepin-3-yl)benzyl)piperazin-1-yl)(cyclopentyl)methanone], the figure is 5.47; as for `CC(C)(C)c1ccc(-c2nnc3n2-c2cccnc2Nc2ccccc2-3)cc1` [Example 7, 3-(4-(tert-butyl)phenyl)-9H-benzo[f]pyrido[2,3-b][1,2,4]triazolo[4,3-d][1,4]diazepine], 5.33; as for `c1ccc2c(c1)Nc1ncccc1-n1c(-c3ccc(CNC4CCC4)cc3)nnc1-2` [Example 69, N-(4-(9H-benzo[f]pyrido[2,3-b][1,2,4]triazolo[4,3-d][1,4]diazepin-3-yl)benzyl)cyclobutanamine], 5.35.

With `Cc1cc(C(=O)N2CCN(Cc3ccc(-c4nnc5n4-c4cccnc4Nc4ccccc4-5)cc3)CC2)no1` [Example 142, (4-(4-(9H-benzo[f]pyrido[2,3-b][1,2,4]triazolo[4,3-d][1,4]diazepin-3-yl)benzyl)piperazin-1-yl)(5-methylisoxazol-3-yl)methanone], the pIC50 is 5.54. For the molecule `O=C(Nc1ccc(-c2nnc3n2-c2cccnc2Nc2ccccc2-3)cc1)c1ccc(F)c(C(F)(F)F)c1` [Example 46, N-(4-(9H-benzo[f]pyrido[2,3-b][1,2,4]triazolo[4,3-d][1,4]diazepin-3-yl)phenyl)-4-fluoro-3-(trifluoromethyl)benzamide], the pIC50 was 5.28. As for `O=S(=O)(NC1(c2ccc(-c3nnc4n3-c3cccnc3Nc3ccccc3-4)cc2)CCC1)c1ccc(F)cc1` [Example 197, N-(1-(4-(9H-benzo[f]pyrido[2,3-b][1,2,4]triazolo[4,3-d][1,4]diazepin-3-yl)phenyl)cyclobutyl)-4-fluorobenzenesulfonamide], the figure is 6.24; as for `O=C(Cc1ccccc1)N1CCN(Cc2ccc(-c3nnc4n3-c3cccnc3Nc3ccccc3-4)cc2)CC1` [Example 140, 1-(4-(4-(9H-benzo[f]pyrido[2,3-b][1,2,4]triazolo[4,3-d][1,4]diazepin-3-yl)benzyl)piperazin-1-yl)-2-phenylethanone], 5.22; as for `CCCNCc1ccc(-c2nnc3n2-c2cccnc2Nc2ccccc2-3)cc1` [Example 87, N-(4-(9H-benzo[f]pyrido[2,3-b][1,2,4]triazolo[4,3-d][1,4]diazepin-3-yl)benzyl)propan-1-amine], 5.24. As for `Cc1ccccc1CNC(=O)NC1CCN(Cc2ccc(-c3nnc4n3-c3cccnc3Nc3ccccc3-4)cc2)CC1` [Example 181, 1-(1-(4-(9H-benzo[f]pyrido[2,3-b][1,2,4]triazolo[4,3-d][1,4]diazepin-3-yl)benzyl)piperidin-4-yl)-3-(2-methylbenzyl)urea], the figure is 5.92. As for `O=c1[nH]c(-c2ccccc2)cn1C1CCN(Cc2ccc(-c3nnc4n3-c3cccnc3Nc3ccccc3-4)cc2)CC1` [Example 191, 1-(1-(4-(9H-benzo[f]pyrido[2,3-b][1,2,4]triazolo[4,3-d][1,4]diazepin-3-yl)benzyl)piperidin-4-yl)-4-phenyl-1H-imidazol-2(3H)-one], the figure is 7.32.

Values taken from patent US8541407B2 (ArQule, Inc., priority 2010, dated 2013).
